# Like-named read-outs stand apart in the source and are kept apart here. Ends that are not written are not given here.
# Legend:
# [1] = system: human breast cancer cells MDA-MB-231; assay type: cell-based; conditions: 72 h
# [2] = system: human gastric carcinoma cells BGC-803; assay type: cell-based; conditions: 72 h
# [3] = system: prostate cancer Du145 cells; test: transwell migration inhibition, Du145; assay type: cell-based, human; conditions: 48 h
# Method: (§1) Human prostate cancer, cervical cancer, osteosarcoma, ovarian cancer, melanoma, and hepatocellular carcinoma cells were inoculated into transwell chambers, with 100 μL per well; for an administration group, 100 μL of a micropeptide MIAC was added to each of the chambers at a different dose; and no medicament was added to a blank group. Then, 0.6 mL of a complete medium comprising 10% FBS was added to transwell lower chambers to stimulate cell migration, followed by incubation at 37° C. with 5% CO2 for 48 h. The culture medium in the wells was discarded, and the cells were fixed with methanol at room temperature for 30 min, stained with 0.1% crystal violet at room temperature for 10 min, and rinsed thoroughly with clear water; the unmigrated cells in the upper layer were wiped off with a cotton swab; and the migrated cells were observed under a microscope, and four visual fields were selected for photography and counting. The migration inhibition rate (MI) was calculated using the following formula: […]
# (§2) where Ntest represents the number of migrated cells in the administration group, and Ncontrol represents the number of migrated cells in the blank control group.
# [4] = system: human non-small cell lung cancer cells NCI-H1299; assay type: cell-based; conditions: 72 h
# [5] = system: human esophageal carcinoma cells CaES-17; assay type: cell-based; conditions: 72 h
# [6] = system: cervical cancer Hela cells; test: transwell migration inhibition, Hela; assay type: cell-based, human; conditions: 48 h
# Method: as §1, §2
# [7] = system: human gastric carcinoma cells BGC-823; assay type: cell-based; conditions: 72 h
sequence,measurement,setting,value
"MERAGVPGFSPRRSSVEAKMQSTSCSVRKSSTVTAWPAVVLLLSWGQRRGG [MIAC, micropeptide inhibiting actin cytoskeleton]",OD,"[1]; MDA-MB-231, 50 μM",0.777 ± 0.050
same,OD,"[1]; MDA-MB-231, 100 μM",0.378 ± 0.058
same,OD,"[1]; MDA-MB-231, 200 μM",0.206 ± 0.016
same,OD,"[2]; BGC-803, 50 μM",1.379 ± 0.025
same,OD,"[2]; BGC-803, 100 μM",0.960 ± 0.059
same,OD,"[2]; BGC-803, 200 μM",0.715 ± 0.015
same,Inhibition rate (%),"[3]; Du145, 3.125 μmol/L",39.23%
same,Number of migrated cells,"[3]; Du145, 3.125 μmol/L",349.3 ± 98.5
same,Inhibition rate (%),"[3]; Du145, 6.25 μmol/L",69.77%
same,Number of migrated cells,"[3]; Du145, 6.25 μmol/L",173.8 ± 48.8
same,Inhibition rate (%),"[3]; Du145, 12.5 μmol/L",82.51%
same,Number of migrated cells,"[3]; Du145, 12.5 μmol/L",100.5 ± 11.8
same,Inhibition rate (%),"[3]; Du145, 25 μmol/L",91.87%
same,Number of migrated cells,"[3]; Du145, 25 μmol/L",46.8 ± 8.5
same,Inhibition rate (%),"[3]; Du145, 50 μmol/L",94.56%
same,Number of migrated cells,"[3]; Du145, 50 μmol/L",31.3 ± 8.4
same,OD,"[4]; NCI-H1299, 50 μM",1.090 ± 0.022
same,OD,"[4]; NCI-H1299, 100 μM",0.754 ± 0.06
same,OD,"[4]; NCI-H1299, 200 μM",0.467 ± 0.012
same,OD,"[5]; CaES-17, 50 μM",1.168 ± 0.044
same,OD,"[5]; CaES-17, 100 μM",0.672 ± 0.051
same,OD,"[5]; CaES-17, 200 μM",0.466 ± 0.022
same,Inhibition rate (%),[6]; 6.25 μmol/L,12.76%
same,Number of migrated cells,[6]; 6.25 μmol/L,475.0 ± 53.3
same,Inhibition rate (%),[6]; 12.5 μmol/L,39.23%
same,Number of migrated cells,[6]; 12.5 μmol/L,296.8 ± 45.0
same,Inhibition rate (%),[6]; 25 μmol/L,33.83%
same,Number of migrated cells,[6]; 25 μmol/L,360.3 ± 119.4
same,Inhibition rate (%),[6]; 50 μmol/L,61.30%
same,Number of migrated cells,[6]; 50 μmol/L,210.5 ± 66.6
same,OD,"[7]; BGC-823, 50 μM",0.950 ± 0.045
same,OD,"[7]; BGC-823, 100 μM",0.556 ± 0.029
same,OD,"[7]; BGC-823, 200 μM",0.327 ± 0.025
